Reference: patent US12533323B2, “Slow-release formulation” (GLYCOSCIENCE, S.L., priority 2021, dated 2026)

Assay: Dissolution of trans-PMD glucovanillin conjugate in water
Type: physicochemical
Conditions: solid 50 mg in water 0.1 ml
From the text: The resultant solution was cooled to room temperature and purified by chromatography over silica by gradient elution using 1:1 EtOAc/hexane to remove residual diol followed by 1:10 MeOH/dichloromethane to afford the title compound as an odourless white solid (0.73 g, 74%).

With `COc1cc(C2O[C@H]3C[C@@H](C)CCC3C(C)(C)O2)ccc1O[C@@H]1O[C@H](CO)[C@@H](O)[C@H](O)[C@H]1O` (mixture of isomers) [Example 2, Racemic trans-PMD Glucovanillin Conjugate] the dissolution in water was “readily dissolve”.
